From patent US8835466B2, “Synthesis and uses of pyroglutamic acid derivatives” (Prodimed, S.A., priority 2006, dated 2014)

System: KLN 205 cells (lung cell carcinoma)
Assay: Effect of 9d and Cisplatin on KLN 205 tumour growth after subcutaneous, intradermal or intramuscular inoculation (Example 12)
Type: in vivo, DBA/2 mice
Description: This was carried out by measuring two perpendicular diameters (d1/d2) with a calliper. These measures were used to obtain both tumour surface and volume: […] Results were expressed as single values and/or as the mean±SD or median from each experimental group. This assay was made in order to check the effect on in vivo tumour growth in mice challenged with KLN 205 cells. Tumours where established by subcutaneous, intradermal or intramuscular inoculation. The effect of the combination of cisplatin and/or Isomer (9d) was compared with placebo in mice challenged intradermally. […] KLN 205 is a lung cell carcinoma originated in DBA/2 mouse strain, and therefore syngeneic in mice with DBA/2 genetic background (Kaneko T and […]. Growth characteristics and drug responses of a murine lung carcinoma in vitro and in vivo. Cancer Research. 38: 2084-2090; 1978). KLN 205 cells (CLS, Eppelheim, Germany) were maintained in vitro by serial passages every 3-4 days. […] Louis, Mo., USA) by seeding 5×10^6 cells onto 75 cm^2 culture flasks. Subcultures were carried out by collecting detached cells after treatment with trypsin-EDTA (Sigma, St. Louis, Mo., USA). Tumour cells, collected from 48 hour cultures, were used as source of KLN 205 cells for the studies described below. […] Tumours were established by subcutaneous and intradermal inoculation in the right hind flank, and intramuscular in the right hind leg. Mice (DBA/2) were inoculated with 0.05 mL containing 2×10^5 viable KLN 205 cells. The day of subcutaneous, intradermal and intramuscular inoculation will be considered Day 0 of the test. A case-control study was performed with treated and control mice in order to determine whether differences between placebo, 9d, Cisplatin or 9d+Cisplatin were present. The data obtained (tumour surface and volume) were tested for Normal distribution within the groups (Kolmogorov Smirnov test p<0.05). […] The U-test of Mann Withney was chosen for being one of the better known non-parametrical tests, anyway, results for this test are equivalent both to those of Wilcoxon's sum of ranges and Kruskal-Wallis two-groups test.

[1] = Group A2 (9d 250 ng/mouse), day 0 after tumour inoculation
[2] = Group A2 (9d 250 ng/mouse), day 10 after tumour inoculation
[3] = Group A2 (9d 250 ng/mouse), day 13 after tumour inoculation
[4] = Group A2 (9d 250 ng/mouse), day 17 after tumour inoculation
[5] = Group A2 (9d 250 ng/mouse), day 20 after tumour inoculation
[6] = Group A2 (9d 250 ng/mouse), day 24 after tumour inoculation
[7] = Group A2 (9d 250 ng/mouse), day 27 after tumour inoculation
[8] = Group A2 (9d 250 ng/mouse), day 31 after tumour inoculation
[9] = Group C2 (9d 250 ng/mouse), day 0 after tumour inoculation
[10] = Group C2 (9d 250 ng/mouse), day 10 after tumour inoculation
[11] = Group C2 (9d 250 ng/mouse), day 13 after tumour inoculation
[12] = Group C2 (9d 250 ng/mouse), day 17 after tumour inoculation
[13] = Group C2 (9d 250 ng/mouse), day 20 after tumour inoculation
[14] = Group C2 (9d 250 ng/mouse), day 24 after tumour inoculation
[15] = Group C2 (9d 250 ng/mouse), day 27 after tumour inoculation
[16] = Group C2 (9d 250 ng/mouse), day 31 after tumour inoculation
[17] = Group C2 (9d 250 ng/mouse), day 34 after tumour inoculation
[18] = Group C2 (9d 250 ng/mouse), day 38 after tumour inoculation
[19] = Groups B2-B4 (9d 250 ng, Cisplatin 65 μg, or both), day 0 after tumour inoculation
[20] = Groups B2-B4 (9d 250 ng, Cisplatin 65 μg, or both), day 10 after tumour inoculation
[21] = Groups B2-B4 (9d 250 ng, Cisplatin 65 μg, or both), day 13 after tumour inoculation
[22] = Groups B2-B4 (9d 250 ng, Cisplatin 65 μg, or both), day 17 after tumour inoculation
[23] = Groups B2-B4 (9d 250 ng, Cisplatin 65 μg, or both), day 20 after tumour inoculation
[24] = Groups B2-B4 (9d 250 ng, Cisplatin 65 μg, or both), day 24 after tumour inoculation
[25] = Groups B2-B4 (9d 250 ng, Cisplatin 65 μg, or both), day 27 after tumour inoculation
[26] = Groups B2-B4 (9d 250 ng, Cisplatin 65 μg, or both), day 31 after tumour inoculation

Br.N[C@]1(C[n+]2ccccc2)C[C@H](C(=O)O)NC1=O.[Br-] (single isomer, unassigned; isomer 4) [isomer 4, 3S,5R-1-(3-Amino-5-carboxy-2-oxopyrrolidin-3-ylmethyl)pyridinium bromide hidrobromide]
SURFACE Overall values (Mean) [1]: 0 mm^2
SURFACE Overall values (Median) [1]: 0 mm^2
VOLUME Overall values (Mean) [1]: 0 mm^3
VOLUME Overall values (Median) [1]: 0 mm^3
SURFACE Overall values (Mean) [2]: 11.4 mm^2
SURFACE Overall values (Median) [2]: 12.5 mm^2
VOLUME Overall values (Mean) [2]: 22 mm^3
VOLUME Overall values (Median) [2]: 22.75 mm^3
SURFACE Overall values (Mean) [3]: 27.4 mm^2
SURFACE Overall values (Median) [3]: 30 mm^2
VOLUME Overall values (Mean) [3]: 75.5 mm^3
VOLUME Overall values (Median) [3]: 75 mm^3
SURFACE Overall values (Mean) [4]: 49 mm^2
SURFACE Overall values (Median) [4]: 45 mm^2
VOLUME Overall values (Mean) [4]: 171.6 mm^3
VOLUME Overall values (Median) [4]: 135 mm^3
SURFACE Overall values (Mean) [5]: 74.4 mm^2
SURFACE Overall values (Median) [5]: 70 mm^2
VOLUME Overall values (Mean) [5]: 304.2 mm^3
VOLUME Overall values (Median) [5]: 245 mm^3
SURFACE Overall values (Mean) [6]: 117.4 mm^2
SURFACE Overall values (Median) [6]: 118.5 mm^2
VOLUME Overall values (Mean) [6]: 554.9 mm^3
VOLUME Overall values (Median) [6]: 506.25 mm^3
SURFACE Overall values (Mean) [7]: 149.3 mm^2
SURFACE Overall values (Median) [7]: 159 mm^2
VOLUME Overall values (Mean) [7]: 765.05 mm^3
VOLUME Overall values (Median) [7]: 800 mm^3
SURFACE Overall values (Mean) [8]: 179.2 mm^2
SURFACE Overall values (Median) [8]: 186 mm^2
VOLUME Overall values (Mean) [8]: 1020 mm^3
VOLUME Overall values (Median) [8]: 1058.75 mm^3
SURFACE Overall values (Mean) [9]: 0 mm^2
SURFACE Overall values (Median) [9]: 0 mm^2
SURFACE Overall values (Mean) [10]: 0.06 mm^2
SURFACE Overall values (Median) [10]: 0.03 mm^2
SURFACE Overall values (Mean) [11]: 0.18 mm^2
SURFACE Overall values (Median) [11]: 0.17 mm^2
SURFACE Overall values (Mean) [12]: 0.37 mm^2
SURFACE Overall values (Median) [12]: 0.315 mm^2
SURFACE Overall values (Mean) [13]: 0.89 mm^2
SURFACE Overall values (Median) [13]: 0.93 mm^2
SURFACE Overall values (Mean) [14]: 2.48 mm^2
SURFACE Overall values (Median) [14]: 1.83 mm^2
SURFACE Overall values (Mean) [15]: 6.7 mm^2
SURFACE Overall values (Median) [15]: 6.94 mm^2
SURFACE Overall values (Mean) [16]: 13.61 mm^2
SURFACE Overall values (Median) [16]: 12.26 mm^2
SURFACE Overall values (Mean) [17]: 29.17 mm^2
SURFACE Overall values (Median) [17]: 24.34 mm^2
SURFACE Overall values (Mean) [18]: 41.53 mm^2
SURFACE Overall values (Median) [18]: 37.56 mm^2
SURFACE Overall values (Mean) [19]: 0 mm^2
SURFACE Overall values (Median) [19]: 0 mm^2
VOLUME Overall values (Mean) [19]: 0 mm^3
VOLUME Overall values (Median) [19]: 0 mm^3
SURFACE Overall values (Mean) [20]: 14.3 mm^2
SURFACE Overall values (Median) [20]: 12.5 mm^2
VOLUME Overall values (Mean) [20]: 28.85 mm^3
VOLUME Overall values (Median) [20]: 22.75 mm^3
SURFACE Overall values (Mean) [21]: 27.9 mm^2
SURFACE Overall values (Median) [21]: 25 mm^2
VOLUME Overall values (Mean) [21]: 74.95 mm^3
VOLUME Overall values (Median) [21]: 62.5 mm^3
SURFACE Overall values (Mean) [22]: 46.3 mm^2
SURFACE Overall values (Median) [22]: 42 mm^2
VOLUME Overall values (Mean) [22]: 150.05 mm^3
VOLUME Overall values (Median) [22]: 126 mm^3
SURFACE Overall values (Mean) [23]: 71.2 mm^2
SURFACE Overall values (Median) [23]: 63.5 mm^2
VOLUME Overall values (Mean) [23]: 280.6 mm^3
VOLUME Overall values (Median) [23]: 232.75 mm^3
SURFACE Overall values (Mean) [24]: 107.8 mm^2
SURFACE Overall values (Median) [24]: 95 mm^2
VOLUME Overall values (Mean) [24]: 496.8 mm^3
VOLUME Overall values (Median) [24]: 425.25 mm^3
SURFACE Overall values (Mean) [25]: 141.7 mm^2
SURFACE Overall values (Median) [25]: 128 mm^2
VOLUME Overall values (Mean) [25]: 744.75 mm^3
VOLUME Overall values (Median) [25]: 608.5 mm^3
SURFACE Overall values (Mean) [26]: 177.1 mm^2
SURFACE Overall values (Median) [26]: 162.5 mm^2
VOLUME Overall values (Mean) [26]: 1029.35 mm^3
VOLUME Overall values (Median) [26]: 885.75 mm^3
Differences in intradermal KLN 205 tumour growth rate vs. placebo, in words (intradermal inoculation, Mann-Whitney U test): not differences
Intradermal KLN 205 tumour growth vs. placebo, tendency in words (intradermal inoculation, surface or volume, all days scored after day 17th): significant tendency
Differences in intramuscular KLN 205 tumour growth rate vs. placebo, in words (intramuscular inoculation, Mann-Whitney U test): not differences
Inhibition of the in vivo growth of subcutaneous KLN 205 cells, in words (subcutaneous inoculation): inhibit the in vivo growth
Differences in subcutaneous KLN 205 tumour growth rate vs. placebo, statistical significance p (Mann-Whitney U test) (subcutaneous inoculation, surface or volume, all days scored after the day 20th): < 0.05

N.N.[Cl][Pt][Cl] [Cisplatin, reference compound]
SURFACE Overall values (Mean) [19]: 0 mm^2
SURFACE Overall values (Median) [19]: 0 mm^2
VOLUME Overall values (Mean) [19]: 0 mm^3
VOLUME Overall values (Median) [19]: 0 mm^3
SURFACE Overall values (Mean) [20]: 7.3 mm^2
SURFACE Overall values (Median) [20]: 6.5 mm^2
VOLUME Overall values (Mean) [20]: 11.05 mm^3
VOLUME Overall values (Median) [20]: 8.75 mm^3
SURFACE Overall values (Mean) [21]: 20 mm^2
SURFACE Overall values (Median) [21]: 20 mm^2
VOLUME Overall values (Mean) [21]: 43.6 mm^3
VOLUME Overall values (Median) [21]: 40 mm^3
SURFACE Overall values (Mean) [22]: 38.3 mm^2
SURFACE Overall values (Median) [22]: 33 mm^2
VOLUME Overall values (Mean) [22]: 115.95 mm^3
VOLUME Overall values (Median) [22]: 91.5 mm^3
SURFACE Overall values (Mean) [23]: 62.2 mm^2
SURFACE Overall values (Median) [23]: 56 mm^2
VOLUME Overall values (Mean) [23]: 233.5 mm^3
VOLUME Overall values (Median) [23]: 196 mm^3
SURFACE Overall values (Mean) [24]: 93.7 mm^2
SURFACE Overall values (Median) [24]: 96 mm^2
VOLUME Overall values (Mean) [24]: 408.05 mm^3
VOLUME Overall values (Median) [24]: 384 mm^3
SURFACE Overall values (Mean) [25]: 124.1 mm^2
SURFACE Overall values (Median) [25]: 129 mm^2
VOLUME Overall values (Mean) [25]: 642.55 mm^3
VOLUME Overall values (Median) [25]: 646.5 mm^3
SURFACE Overall values (Mean) [26]: 151.3 mm^2
SURFACE Overall values (Median) [26]: 155 mm^2
VOLUME Overall values (Mean) [26]: 848.95 mm^3
VOLUME Overall values (Median) [26]: 775 mm^3
Inhibition of the in vivo growth of intradermal KLN 205 cells, in words (intradermal inoculation): inhibit the in vivo growth
Differences in intradermal KLN 205 tumour growth rate vs. placebo, statistical significance p (Mann-Whitney U test) (intradermal inoculation, surface or volume, days 17th, 20th and 31th): < 0.05
